In one data set the test system is MAPK (Erk1/2). Description: Inhibition of the phosphorylation of MAPK in DU-145 cells (immunoblotting for phospho-MAPK). In kind it is cell-based. Conditions: DU-145 cells (prostate cancer), incubated over night in serum free medium, IGF1 50 nM for 15 minutes. How it is done:
DU-145 cells (prostate cancer) were incubated over night with compound 15 in serum free medium. After stimulation for 15 minutes with IGF1 (50 nM), the cells were lyzed and the lysates analysed by immunoblotting for phospho-MAPK.
In general terms: A western blot detects proteins with antibodies after separation by electrophoresis.

In data set [1] the test system is insulin receptor substrate 1 (IRS-1). Description: Inhibition of the phosphorylation of insulin receptor substrate 1 (IRS-1) in MF-55 cells. Format: cell-based. Conditions: MF-55 cells (malignant melanoma), 100 ng/ml for one hour, IGF-1 50 ng/ml for 5 minutes. How it is done: MF-55 cells (malignant melanoma) were starved for 20 hours, after which half of the cell mass was incubated with racemic compound 15 (100 ng/ml) for one hour. After activation with IGF-1 (50 ng/ml) for 5 minutes, the two cell samples were lyzed in a special buffer (Upstate Ltd., Dundee, UK) that disrupts the cell membrane as well as the nucleus envelope. After removal of cell debris by centrifugation, the supernatants were analyzed for phosphorylated IRS-1 by Upstate Ltd. The presence of racemic compound 15 lowered the amount of phosphorylated IRS-1 with 20% compared to control. By blocking the function of the IGF-1 receptor, the phosphorylation of the insulin receptor substrate 1 is inhibited.

A further data set addresses T1, IGF-1 receptor (Homo sapiens, UniProt P08069).
T1 construct: endogenous in cells; host or cells: MCF-7
Description: Inhibition of the phosphorylation of the IGF-1 receptor in MCF-7 cells (immunoblotting for phospho-IGF-1R Y1135/1136). In kind it is cell-based. As to conditions: MCF-7 cells serum starved 20 hours, treated 3 hours, stimulated with 10 nM IGF-1 for 5 minutes. As for the experimental part:
MCF-7 cells were serum starved for 20 hours, treated with compound 15 for 3 hours and finally stimulated with 10 nM IGF-1 for 5 minutes. The cells were lyzed and the lysates analysed by SDS-PAGE and immunoblotting for phospho-IGF-1R is (Y1135/1136).

pIC50: −log10 of the molar value.

One may read the pIC50 as −log10 of the IC50, conventionally taken in molar units. Higher therefore signals a low IC50. Broadly, the melting point is the temperature, or range, at which the solid turns liquid.

T1 sequence (P08069 741-1367 limits assumed): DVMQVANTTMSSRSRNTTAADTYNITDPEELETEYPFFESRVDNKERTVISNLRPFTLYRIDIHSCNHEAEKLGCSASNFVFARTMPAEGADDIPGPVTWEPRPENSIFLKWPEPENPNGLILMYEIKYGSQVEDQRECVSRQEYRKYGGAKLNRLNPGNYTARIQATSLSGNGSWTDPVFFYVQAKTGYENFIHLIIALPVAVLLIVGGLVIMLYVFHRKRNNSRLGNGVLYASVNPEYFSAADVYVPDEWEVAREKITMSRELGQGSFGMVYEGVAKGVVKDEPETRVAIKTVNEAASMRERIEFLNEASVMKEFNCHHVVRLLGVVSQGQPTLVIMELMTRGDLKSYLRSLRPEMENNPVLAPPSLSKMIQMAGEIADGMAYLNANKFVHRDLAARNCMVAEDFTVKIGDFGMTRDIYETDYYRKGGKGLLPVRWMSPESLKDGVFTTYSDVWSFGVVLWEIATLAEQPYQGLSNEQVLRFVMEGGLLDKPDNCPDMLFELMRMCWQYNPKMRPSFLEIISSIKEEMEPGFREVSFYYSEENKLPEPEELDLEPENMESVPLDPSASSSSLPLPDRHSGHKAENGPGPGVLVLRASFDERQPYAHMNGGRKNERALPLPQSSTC
T1 sequence (P08069 31-736 limits assumed): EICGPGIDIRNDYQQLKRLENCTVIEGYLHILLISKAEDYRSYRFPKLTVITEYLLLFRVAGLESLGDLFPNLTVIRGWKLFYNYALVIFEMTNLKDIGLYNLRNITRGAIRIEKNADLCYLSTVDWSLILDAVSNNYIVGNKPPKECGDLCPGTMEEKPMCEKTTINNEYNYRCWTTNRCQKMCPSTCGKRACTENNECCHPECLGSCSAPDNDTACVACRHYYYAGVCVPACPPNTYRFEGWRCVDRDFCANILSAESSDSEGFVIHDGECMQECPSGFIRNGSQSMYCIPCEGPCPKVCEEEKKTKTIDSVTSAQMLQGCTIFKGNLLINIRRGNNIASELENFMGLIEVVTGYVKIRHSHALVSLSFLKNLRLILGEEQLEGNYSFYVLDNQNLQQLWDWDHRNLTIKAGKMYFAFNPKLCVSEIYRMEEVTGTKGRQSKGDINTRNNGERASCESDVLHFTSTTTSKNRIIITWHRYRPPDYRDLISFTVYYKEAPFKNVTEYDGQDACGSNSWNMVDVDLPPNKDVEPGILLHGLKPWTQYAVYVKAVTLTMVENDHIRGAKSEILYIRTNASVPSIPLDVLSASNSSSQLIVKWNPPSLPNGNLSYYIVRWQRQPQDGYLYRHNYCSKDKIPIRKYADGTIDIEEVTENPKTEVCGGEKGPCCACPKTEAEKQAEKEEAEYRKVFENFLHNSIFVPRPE

In the data set on MAPK (Erk1/2), `COc1cc([C@@H]2c3cc4c(cc3[C@H](O)[C@H]3COC(=O)[C@@H]23)OCO4)cc(OC)c1OC` [Picropodophyllin, reference compound] had a pIC50 of roughly 5.30.

Take `COc1cc(OC)cc(C2C(=O)N(C)Cc3cc(OC)ccc32)c1` (stereo not shown) [Compound 13, 2-methyl-4-(3,5-dimethoxyphenyl)-7-methoxy-1,4-dihydro-3(2H)-isoquinolinone]: the melting point is 137 to 139 °C.

As to `COc1ccc2c(c1O)CN(C)C(=O)C2c1cc(OC)c(OC)c(OC)c1` (racemic) [racemic compound 15, 2-methyl-4-(3,4,5-trimethoxyphenyl)-8-hydroxy-7-methoxy-1,4-dihydro-3(2H)-isoquinolinone], the “lowering of the amount of phosphorylated IRS-1 compared to control” value in data set [1] worked out at 20%.

In turn, `COc1cc(C2C(=O)N(C)Cc3cc4c(cc32)OCCO4)cc(OC)c1OC` (stereo not shown) [Compound 9, 2-methyl-4-(3,4,5-trimethoxyphenyl)-6,7-ethylenedioxy-1,4-dihydro-3(2H)-isoquinolinone] gave a melting point of 148 to 149 °C.

`COc1ccc2c(c1)CN(N)C(=O)C2c1cc(OC)c(OC)c(OC)c1.Cl` (stereo not shown): the melting point was 164 to 167 °C.

Regarding `COc1ccc2c(c1O)CN(C)C(=O)C2c1cc(OC)c(OC)c(OC)c1` (single isomer, unassigned; (+)) [Compound 15, (+)-2-methyl-4-(3,4,5-trimethoxyphenyl)-8-hydroxy-7-methoxy-1,4-dihydro-3(2H)-isoquinolinone], the results for the pIC50 against IGF-1 receptor and in the data set on MAPK (Erk1/2) were roughly 6.00 and roughly 6.52, respectively.
